Consider 22 compounds from patent publication US10745382B2 (BRISTOL-MYERS SQUIBB COMPANY, priority 2015, dated 2020).

For orientation: IC50 means the point on the concentration scale where inhibition reaches its midpoint.

In this assay the target is T1, PD-1/PD-L1 (Homo sapiens, UniProt Q9NZQ7).
T1 construct: made in house; host or cells: HEK293T
Put plainly: PD-1/PD-L1 Homogenous Time-Resolved Fluorescence (HTRF) binding assay. The following applies: PD-L1-His 10 nM, PD-1-Ig 20 nM; value given as range class; read-out: Range or IC50. The method, then:
The ability of the compounds of formula (I) to bind to PD-L1 was investigated using a PD-1/PD-L1 Homogenous Time-Resolved Fluorescence (HTRF) binding assay.
Homogenous Time-Resolved Fluorescence (HTRF) Binding Assay.
All binding studies were performed in an HTRF assay buffer consisting of dPBS supplemented with 0.1% […] bovine serum albumin and 0.05% (v/v) Tween-20. […] HTRF detection was achieved using europium crypate-labeled anti-Ig (1 nM final) and allophycocyanin (APC) labeled anti-His (20 nM final). Antibodies were diluted in HTRF detection buffer and 5 μl was dispensed on top of the binding reaction. […] Additional binding assays were established between the human proteins PD-1-Ig/PD-L2-His (20 & 5 nM, respectively) and CD80-His/PD-L1-Ig (100 & 10 nM, respectively). […]
Background: In TR-FRET formats the signal depends on donor and acceptor labels being close together.

T1 sequence (Q9NZQ7 with tags, fused parts or gaps): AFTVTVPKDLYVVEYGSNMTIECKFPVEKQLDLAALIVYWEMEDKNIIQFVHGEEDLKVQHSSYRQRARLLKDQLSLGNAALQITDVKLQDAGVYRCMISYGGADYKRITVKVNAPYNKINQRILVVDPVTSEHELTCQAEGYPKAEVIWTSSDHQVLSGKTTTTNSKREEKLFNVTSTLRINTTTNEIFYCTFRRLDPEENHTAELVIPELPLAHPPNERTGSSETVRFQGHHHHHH

Regarding `Cc1c(COc2cc(OCc3cncc(C#N)c3)c(CN3CC[C@H](O)C3)cc2Cl)cccc1-c1ccc2c(c1)OC(CCN1CC[C@H](O)C1)CO2` (mixture of isomers) [Example 1501, 5-((4-chloro-5-((3-(3-(2-((S)-3-hydroxypyrrolidin-1-yl)ethyl)-2,3-dihydrobenzo[b][1,4]dioxin-6-yl)-2-methylbenzyl)oxy)-2-(((S)-3-hydroxypyrrolidin-1-yl)methyl)phenoxy)methyl)nicotinonitrile], the IC50 lay in the range of 0.21 to 10 nM.
On to `Cc1c(COc2cc(OCc3cncc(C#N)c3)c(C=O)cc2Cl)cccc1-c1ccc2c(c1)OC(CCN1CC[C@H](O)C1)CO2` (mixture of isomers) [Example 1502, 5-((4-chloro-2-formyl-5-((3-(3-(2-((S)-3-hydroxypyrrolidin-1-yl)ethyl)-2,3-dihydrobenzo[b][1,4]dioxin-6-yl)-2-methylbenzyl)oxy)phenoxy)methyl)nicotinonitrile], for which the concentration for half-maximal inhibition (IC50) lay in the range of 10 to 100 nM.
Next, `Cc1c(COc2cc(OCc3cncc(C#N)c3)c(CN3CCCC[C@H]3C(=O)O)cc2Cl)cccc1-c1ccc2c(c1)OC(CCN1CC[C@H](O)C1)CO2` (mixture of isomers) [Example 1503, (2S)-1-(5-chloro-2-((5-cyanopyridin-3-yl)methoxy)-4-((3-(3-(2-((S)-3-hydroxypyrrolidin-1-yl)ethyl)-2,3-dihydrobenzo[b][1,4]dioxin-6-yl)-2-methylbenzyl)oxy)benzyl)piperidine-2-carboxylic acid]: 10 to 100 nM; `Cc1c(COc2cc(OCc3cncc(C#N)c3)c(CN3CCCC[C@H]3C(=O)O)cc2Cl)cccc1-c1ccc2c(c1)OC(CCN1CC[C@@H](O)C1)CO2` (mixture of isomers) [Example 1504, (2S)-1-(5-chloro-2-((5-cyanopyridin-3-yl)methoxy)-4-((3-(3-(2-((R)-3-hydroxypyrrolidin-1-yl)ethyl)-2,3-dihydrobenzo[b][1,4]dioxin-6-yl)-2-methylbenzyl)oxy)benzyl)piperidine-2-carboxylic acid]: 0.21 to 10 nM; `Cc1c(COc2cc(OCc3cncc(S(C)(=O)=O)c3)c(CN3CCCC[C@H]3C(=O)O)cc2Cl)cccc1-c1ccc2c(c1)OC(CCN1CC[C@@H](O)C1)CO2` (mixture of isomers) [Example 1507, (2S)-1-(5-chloro-4-((3-(3-(2-((R)-3-hydroxypyrrolidin-1-yl)ethyl)-2,3-dihydrobenzo[b][1,4]dioxin-6-yl)-2-methylbenzyl)oxy)-2-((5-(methylsulfonyl)pyridin-3-yl)methoxy)benzyl)piperidine-2-carboxylic acid]: 0.21 to 10 nM.
As for `Cc1c(COc2cc(OCc3cncc(S(C)(=O)=O)c3)c(CN3CCCC[C@H]3C(=O)O)cc2Cl)cccc1-c1ccc2c(c1)OC(CCN1CCC(O)(CC(=O)O)C1)CO2` (mixture of isomers) [Example 1508, (2S)-1-(4-((3-(3-(2-(3-(carboxymethyl)-3-hydroxypyrrolidin-1-yl)ethyl)-2,3-dihydrobenzo[b][1,4]dioxin-6-yl)-2-methylbenzyl)oxy)-5-chloro-2-((5-(methylsulfonyl)pyridin-3-yl)methoxy)benzyl)piperidine-2-carboxylic acid], the concentration for half-maximal inhibition (IC50) was 0.21 to 10 nM.
For `Cc1c(COc2cc(OCc3cncc(S(C)(=O)=O)c3)c(CN3CCCC[C@H]3C(=O)O)cc2Cl)cccc1-c1cccc(OCCCN2CCC(O)(CC(=O)O)C2)c1C` (mixture of isomers) [Example 1516, (2S)-1-(4-((3′-(3-(3-(carboxymethyl)-3-hydroxypyrrolidin-1-yl)propoxy)-2,2′-dimethyl-[1,1′-biphenyl]-3-yl)methoxy)-5-chloro-2-((5-(methylsulfonyl)pyridin-3-yl)methoxy)benzyl)piperidine-2-carboxylic acid], the IC50 is 0.21 to 10 nM.
`Cc1c(COc2cc(OCc3cncc(C#N)c3)c(CN3CCCC[C@H]3C(=O)O)cc2Cl)cccc1-c1cccc(OCCCN2CCC(O)(CC(=O)O)C2)c1C` (mixture of isomers) [Example 1519, (2S)-1-(4-((3′-(3-(3-(carboxymethyl)-3-hydroxypyrrolidin-1-yl)propoxy)-2,2′-dimethyl-[1,1′-biphenyl]-3-yl)methoxy)-5-chloro-2-((5-cyanopyridin-3-yl)methoxy)benzyl)piperidine-2-carboxylic acid]: the half-inhibitory concentration (IC50) was 0.21 to 10 nM.
Next, `CCOC(=O)CC1(O)CCN(CCC2COc3ccc(-c4cccc(COc5cc(OCc6cncc(S(C)(=O)=O)c6)c(CN6CCCC[C@H]6C(=O)OC)cc5Cl)c4C)cc3O2)C1` (mixture of isomers) [Example 1527, (2S)-methyl 1-(5-chloro-4-((3-(3-(2-(3-(2-ethoxy-2-oxoethyl)-3-hydroxypyrrolidin-1-yl)ethyl)-2,3-dihydrobenzo[b][1,4]dioxin-6-yl)-2-methylbenzyl)oxy)-2-((5-(methylsulfonyl)pyridin-3-yl)methoxy)benzyl)piperidine-2-carboxylate]: 10 to 100 nM; `Cc1c(COc2cc(OCc3cncc(C#N)c3)c(CNC(C)(CO)C(=O)O)cc2Cl)cccc1-c1cccc(OCc2cncc(C#N)c2)c1` (racemic) [Example 3018, 2-((5-chloro-2-((5-cyanopyridin-3-yl)methoxy)-4-((3′-((5-cyanopyridin-3-yl)methoxy)-2-methyl-[1,1′-biphenyl]-3-yl)methoxy)benzyl)amino)-3-hydroxy-2-methylpropanoic Acid]: 0.21 to 10 nM.
Next, `Cc1c(COc2cc(OCc3cncc(S(C)(=O)=O)c3)c(CN3CCCC[C@H]3C(=O)O)cc2Cl)cccc1-c1cccc(OCCCN2CCC(CO)(C(=O)O)C2)c1Cl` (single isomer, unassigned) [Example 1062]: 0.21 to 10 nM.
For the compound `Cc1c(COc2cc(OCc3cncc(S(C)(=O)=O)c3)c(CNC(C)(CO)C(=O)O)cc2Cl)cccc1-c1cccc(OCCCN2CCC(CO)(C(=O)O)C2)c1Cl` (single isomer, unassigned) [Example 1063], the IC50 lay within 0.21 to 10 nM.
In the case of `Cc1c(COc2cc(OCc3cncc(S(C)(=O)=O)c3)c(CNC(C)(CO)C(=O)O)cc2Cl)cccc1-c1cccc(OCCCN2CCC(CO)(C(=O)O)C2)c1Cl` (single isomer, unassigned) [Example 1064] it was 0.21 to 10 nM.
In the case of `Cc1c(COc2cc(OCc3cncc(S(C)(=O)=O)c3)c(CN3CCCC[C@H]3C(=O)O)cc2Cl)cccc1-c1cccc(OCCCN2CCC(CO)(C(=O)O)C2)c1Cl` (single isomer, unassigned) [Example 1065], the IC50 was 0.21 to 10 nM.
In the case of `Cc1c(COc2cc(OCc3cncc(C#N)c3)c(CN3CCCC[C@H]3C(=O)O)cc2Cl)cccc1-c1cccc(OCCCN2CCC(CO)(C(=O)O)C2)c1C` (single isomer, unassigned) [Example 1066] it was 0.21 to 10 nM; in that of `Cc1c(COc2cc(OCc3cncc(C#N)c3)c(CNC(C)(CO)C(=O)O)cc2Cl)cccc1-c1cccc(OCCCN2CCC(CO)(C(=O)O)C2)c1C` (single isomer, unassigned) [Example 1067], 0.21 to 10 nM.
In the case of `Cc1c(COc2cc(OCc3cncc(C#N)c3)c(CN3CCCC[C@H]3C(=O)O)cc2Cl)cccc1-c1ccc2c(c1)OC(CCN1CC[C@@H](O)C1)CO2` (single isomer, unassigned) [Example 1505] it was 0.21 to 10 nM.
Next, `Cc1c(COc2cc(OCc3cncc(C#N)c3)c(CN3CCCC[C@H]3C(=O)O)cc2Cl)cccc1-c1ccc2c(c1)OC(CCN1CC[C@@H](O)C1)CO2` (single isomer, unassigned) [Example 1506]: 0.21 to 10 nM; `Cc1c(COc2cc(OCc3cncc(C#N)c3)c(CNCCCN(C)C)cc2Cl)cccc1-c1cccc(OCCCN2CCC(O)C2)c1` (stereo in doubt) [Example 3001, (R)-5-((4-chloro-2-(((3-(dimethylamino)propyl)amino)methyl)-5-((3′-(3-(3-hydroxypyrrolidin-1-yl)propoxy)-2-methyl-[1,1′-biphenyl]-3-yl)methoxy)phenoxy)methyl)nicotinonitrile]: 0.21 to 10 nM; `Cc1c(COc2cc(OCc3cncc(C#N)c3)c(CN[C@@H](CCCNC(=N)N)C(=O)O)cc2Cl)cccc1-c1cccc(OCCCN2CCC(O)C2)c1` (stereo in doubt) [Example 3002, (S)-2-((5-chloro-2-((5-cyanopyridin-3-yl)methoxy)-4-((3′-(3-((R)-3-hydroxypyrrolidin-1-yl)propoxy)-2-methyl-[1,1′-biphenyl]-3-yl)methoxy)benzyl)amino)-5-guanidinopentanoic Acid]: 0.21 to 10 nM.
`Cc1c(COc2cc(OCc3cncc(C#N)c3)c(CN[C@@](C)(CO)C(=O)O)cc2Cl)cccc1-c1cccc(OCCCN2CCC(O)C2)c1C` (stereo in doubt) [Example 3003, (S)-2-((5-chloro-2-((5-cyanopyridin-3-yl)methoxy)-4-((3′-(3-((R)-3-hydroxypyrrolidin-1-yl)propoxy)-2,2′-dimethyl-[1,1′-biphenyl]-3-yl)methoxy)benzyl)amino)-3-hydroxy-2-methylpropanoic Acid]: the IC50 lay in the range of 0.21 to 10 nM.
As to `Cc1c(COc2cc(OCc3cncc(C#N)c3)c(CN[C@@H](CO)C(=O)O)cc2Cl)cccc1-c1cccc(OCCCN2CCC(O)C2)c1C` (stereo in doubt) [Example 3004, (S)-2-((5-chloro-2-((5-cyanopyridin-3-yl)methoxy)-4-((3′-(3-((R)-3-hydroxypyrrolidin-1-yl)propoxy)-2,2′-dimethyl-[1,1′-biphenyl]-3-yl)methoxy)benzyl)amino)-3-hydroxypropanoic Acid], the IC50 lay in the range of 0.21 to 10 nM.
